We go through 3 compounds from patent US5145854A, “1-formyl-5,8,10-trideazafolates” (priority 1991, dated 1992).

Where two headings read alike, the source gives them in different places. Bounds are passed on as bounds.

In experiment [1] the target is T1, hog liver glycinamide ribonucleotide formyltransferase (GARFTase) (Sus scrofa, UniProt A0A8W4FJW8).
T1 construct: hog liver glycinamide ribonucleotide formyltransferase; from tissue; host or cells: hog liver
T1 sequence (A0A8W4FJW8 1-1009): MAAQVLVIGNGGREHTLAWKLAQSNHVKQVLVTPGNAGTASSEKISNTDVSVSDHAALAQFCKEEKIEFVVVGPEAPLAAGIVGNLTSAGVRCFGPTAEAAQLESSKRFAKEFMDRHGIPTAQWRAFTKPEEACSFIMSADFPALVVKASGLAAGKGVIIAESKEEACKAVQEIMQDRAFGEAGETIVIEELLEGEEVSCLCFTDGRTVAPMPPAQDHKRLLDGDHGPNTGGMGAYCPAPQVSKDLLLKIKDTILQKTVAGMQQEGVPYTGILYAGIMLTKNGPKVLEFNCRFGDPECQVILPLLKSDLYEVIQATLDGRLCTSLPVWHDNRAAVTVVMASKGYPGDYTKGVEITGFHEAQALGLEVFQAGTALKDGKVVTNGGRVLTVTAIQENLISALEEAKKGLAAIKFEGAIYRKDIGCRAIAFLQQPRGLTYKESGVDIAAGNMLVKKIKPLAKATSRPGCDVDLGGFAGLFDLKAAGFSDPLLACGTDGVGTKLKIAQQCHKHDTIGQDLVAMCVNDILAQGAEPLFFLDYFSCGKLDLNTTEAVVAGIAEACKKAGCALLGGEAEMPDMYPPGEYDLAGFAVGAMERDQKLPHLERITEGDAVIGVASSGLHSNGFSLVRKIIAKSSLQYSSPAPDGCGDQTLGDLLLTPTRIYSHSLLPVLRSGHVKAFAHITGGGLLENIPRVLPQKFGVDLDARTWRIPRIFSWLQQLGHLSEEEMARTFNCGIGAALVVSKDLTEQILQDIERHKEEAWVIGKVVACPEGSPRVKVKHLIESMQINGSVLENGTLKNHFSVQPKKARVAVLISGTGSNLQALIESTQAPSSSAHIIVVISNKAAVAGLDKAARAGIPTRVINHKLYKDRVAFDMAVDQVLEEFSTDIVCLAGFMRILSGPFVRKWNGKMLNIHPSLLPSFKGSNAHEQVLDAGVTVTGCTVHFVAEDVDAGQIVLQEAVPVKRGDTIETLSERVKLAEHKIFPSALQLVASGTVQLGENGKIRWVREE
Description: Inhibition of hog liver glycinamide ribonucleotide formyltransferase. Conditions: for IC50: hog liver enzyme, (R,S) diastereomer mixture where marked, read-out: I50 (μM) GARFTase. In kind it is biochemical. The source says: The representative compound of the present invention is 10-formyl-5,8,10-trideazatetrahydrofolic acid (FTDF) having the formula 1.

For experiment [2], the target named is AICARFTase (Homo sapiens, UniProt P31939). Description: Inhibition of AICARFTase. In kind it is biochemical.
Sequence of AICARFTase (P31939 whole entry): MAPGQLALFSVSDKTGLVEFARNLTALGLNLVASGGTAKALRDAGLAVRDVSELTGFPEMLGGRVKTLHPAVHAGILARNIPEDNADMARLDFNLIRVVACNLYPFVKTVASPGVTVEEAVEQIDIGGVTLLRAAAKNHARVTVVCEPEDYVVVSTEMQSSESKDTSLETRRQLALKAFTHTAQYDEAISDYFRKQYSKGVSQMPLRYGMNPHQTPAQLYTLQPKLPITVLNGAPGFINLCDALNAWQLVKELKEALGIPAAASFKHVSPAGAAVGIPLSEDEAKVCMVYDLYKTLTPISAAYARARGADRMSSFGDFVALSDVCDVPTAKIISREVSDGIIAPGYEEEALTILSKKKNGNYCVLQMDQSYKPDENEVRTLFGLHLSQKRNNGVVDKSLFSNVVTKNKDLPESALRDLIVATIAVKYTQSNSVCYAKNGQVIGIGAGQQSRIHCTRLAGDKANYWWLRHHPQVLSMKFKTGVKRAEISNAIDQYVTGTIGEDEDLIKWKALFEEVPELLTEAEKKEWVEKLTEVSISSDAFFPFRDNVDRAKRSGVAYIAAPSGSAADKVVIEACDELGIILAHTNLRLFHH

As for `Nc1nc(N)c(CCCNc2ccc(C(=O)N[C@@H](CCC(=O)O)C(=O)O)cc2)c(=O)[nH]1` [Compound 5-DACTHF, 5-deazaacyclotetrahydrofolic acid, reference compound], the IC50 in experiment [1] was determined as 2.5 µM.

Take `Nc1nc2c(c(=O)[nH]1)CC(CCc1ccc(C(=O)N[C@@H](CCC(=O)O)C(=O)O)cc1)CN2` (some centres unmarked) [DDATHF, 5,10-dideazatetrahydrofolic acid, reference compound]: the IC50 in experiment [2] is more than 500 µM.

For `Nc1nc2ccc(CC(C=O)c3ccc(C(=O)N[C@@H](CCC(=O)O)C(=O)O)cc3)cc2c(=O)[nH]1` (some centres unmarked) [FTDF, 10-Formyl-5,8,10-trideazafolic Acid], in experiment [1] (hog liver GARFTase, identical experimental conditions), the “potency against GARFTase relative to DDATHF” value was “almost twice as potent”. The results for the IC50 in experiment [1] and in experiment [2] (read-out: I50 (μM) AICARFTase) were 0.15 µM and 18 µM, respectively.
